# In US20230339889A1, “DERIVATIVES OF 2-OXO-N-(4-(PYRIMIDIN-4-YLOXY/THIO)PHENYL)-1,2-DIHYDROPYRIDINE-3-CARBOXAMIDE FOR USE AS PROTEIN KINASE INHIBITORS FOR THERAPY” (AUCENTRA THERAPEUTICS PTY LTD, priority 2020, published 2023):
# Biological target: T1, AXL (Homo sapiens, UniProt P30530)
# T1 construct: purchased Eurofins Discovery (Kinase Profiler service)
# T1 sequence (P30530 26-894): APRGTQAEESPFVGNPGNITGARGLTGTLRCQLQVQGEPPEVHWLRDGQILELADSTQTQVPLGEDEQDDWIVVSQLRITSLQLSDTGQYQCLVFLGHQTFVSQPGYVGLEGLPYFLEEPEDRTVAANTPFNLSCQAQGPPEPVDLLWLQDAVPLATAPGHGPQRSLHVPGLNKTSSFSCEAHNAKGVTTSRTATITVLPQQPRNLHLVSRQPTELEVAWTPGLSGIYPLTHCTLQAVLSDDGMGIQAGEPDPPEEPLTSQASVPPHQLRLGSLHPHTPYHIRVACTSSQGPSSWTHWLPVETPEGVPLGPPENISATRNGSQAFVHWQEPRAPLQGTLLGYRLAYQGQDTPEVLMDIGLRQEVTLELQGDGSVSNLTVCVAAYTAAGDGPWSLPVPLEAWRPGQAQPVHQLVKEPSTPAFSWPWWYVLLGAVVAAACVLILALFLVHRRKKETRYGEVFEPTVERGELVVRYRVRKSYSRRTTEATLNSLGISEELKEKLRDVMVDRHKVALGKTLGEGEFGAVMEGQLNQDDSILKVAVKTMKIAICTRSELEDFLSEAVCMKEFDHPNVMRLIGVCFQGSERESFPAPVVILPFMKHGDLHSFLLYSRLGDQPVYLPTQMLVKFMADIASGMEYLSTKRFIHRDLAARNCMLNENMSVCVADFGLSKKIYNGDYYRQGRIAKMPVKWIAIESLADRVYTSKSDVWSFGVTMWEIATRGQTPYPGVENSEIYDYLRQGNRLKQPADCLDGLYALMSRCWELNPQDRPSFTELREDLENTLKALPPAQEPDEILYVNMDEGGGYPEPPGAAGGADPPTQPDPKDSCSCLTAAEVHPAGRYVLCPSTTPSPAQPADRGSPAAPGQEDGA
# Experiment: Filter-binding radiometric kinase activity assay (KinaseProfiler, Eurofins)
# Type: biochemical
# Details: 1 µM compound; read-out: % Residual enzymatic activity at 1 µM AXL
row,remaining activity at 1 µM,Structure (SMILES)
1,8%,"Nc1ncnc(Oc2ccc(NC(=O)c3cccn(-c4ccc(F)cc4)c3=O)c(F)c2)c1F [Cmpd 7, N-(4-((6-amino-5-fluoropyrimidin-4-yl)oxy)-2-fluorophenyl)-1-(4-fluorophenyl)-2-oxo-1,2-dihydropyridine-3-carboxamide]"
2,-8%,"Nc1ncnc(Oc2ccc(NC(=O)c3cccn(-c4ccc(F)cc4)c3=O)c(F)c2)c1Cl [Cmpd 5, N-(4-((6-amino-5-chloropyrimidin-4-yl)oxy)-2-fluorophenyl)-1-(4-fluorophenyl)-2-oxo-1,2-dihydropyridine-3-carboxamide]"
3,14%,"Nc1ncnc(Oc2ccc(NC(=O)c3cccn(-c4ccc(F)cc4)c3=O)cc2)c1F [Cmpd 6, N-(4-((6-amino-5-fluoropyrimidin-4-yl)oxy)phenyl)-1-(4-fluorophenyl)-2-oxo-1,2-dihydropyridine-3-carboxamide]"

# The remaining lines, values behind:
row,Structure (SMILES),remaining activity at 1 µM
1,"Nc1ncnc(Oc2ccc(NC(=O)c3cccn(-c4ccc(F)cc4)c3=O)cc2)c1Cl [Cmpd 4, N-(4-((6-amino-5-chloropyrimidin-4-yl)oxy)phenyl)-1-(4-fluorophenyl)-2-oxo-1,2-dihydropyridine-3-carboxamide]",-1%
2,"Nc1ncnc(Oc2ccc(NC(=O)c3cccn(-c4ccc(F)cc4)c3=O)cc2F)c1F [Cmpd 1, N-(4-((6-amino-5-fluoropyrimidin-4-yl)oxy)-3-fluorophenyl)-1-(4-fluorophenyl)-2-oxo-1,2-dihydropyridine-3-carboxamide]",13%
3,"Nc1ncnc(Oc2ccc(NC(=O)c3cccn(-c4ccc(F)cc4)c3=O)cc2F)c1Cl [Cmpd 3, N-(4-((6-amino-5-chloropyrimidin-4-yl)oxy)-3-fluorophenyl)-1-(4-fluorophenyl)-2-oxo-1,2-dihydropyridine-3-carboxamide]",4%
